Like-named read-outs stand apart in the source and are kept apart here.
Experiments:
[1] = target: T1, SARM1 TIR domain (bacterial lysate) (Homo sapiens, UniProt Q6SZW1); format: biochemical; conditions: ENAD 0-400 μM; for Inhibition Mechanism: bacterially expressed TIR domain lysate
T1 sequence (Q6SZW1 561-724): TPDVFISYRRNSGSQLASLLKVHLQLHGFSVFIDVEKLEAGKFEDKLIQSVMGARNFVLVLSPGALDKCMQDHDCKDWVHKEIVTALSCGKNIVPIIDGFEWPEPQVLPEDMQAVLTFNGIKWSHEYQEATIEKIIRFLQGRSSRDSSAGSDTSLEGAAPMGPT

SARM1 = conditions: substrate analog; cited from earlier work
[2] = target: T2, purified SARM1 TIR domain (Homo sapiens, UniProt Q6SZW1); experiment: Dose response, ENAD assay, purified TIR domain; format: biochemical; conditions: purified TIR domain (20 μM), 500 μM ENAD
T2 sequence (Q6SZW1 561-724): T1 sequence (Q6SZW1 561-724)

[3] = target: T1, SARM1 TIR domain (bacterial lysate); conditions: cited from earlier work

**Q.** Which “Inhibition Mechanism” value [1] does the source give for `Cl.Nc1ccc(/N=N/c2ccccc2)c(N)n1` [Phenazopyridine Hydrochloride, Phenazopyridine hydrochloride] here?
**A.** Competitive

**Q.** Which “Inhibition Mechanism” value [1] does the source give for `NC(=O)N/N=C/c1ccc([N+](=O)[O-])o1` [Nitroflurazone] here?
**A.** Noncompetitive

**Q.** Which “Inhibition Mechanism” value [1] does the source give for `[O-][n+]1ccccc1[S-].[O-][n+]1ccccc1[S-].[Zn+2]` [Pyrithone Zinc, Pyrithone zinc] here?
**A.** Noncompetitive

**Q.** What does the source list for `NC(=O)c1ccc[n+]([C@@H]2O[C@H](COP(=O)([O-])OP(=O)(O)OC[C@H]3O[C@@H](n4cnc5c4ncn4ccnc54)[C@H](O)[C@@H]3O)[C@@H](O)[C@H]2O)c1` [ENAD, Nicotinamide 1,N^6-ethenoadenine dinucleotide]?
**A.** Km (SARM1): 35 ± 15 µM; kcat (SARM1): 0.05 ± 0.04 s⁻¹

**Q.** For `[Cl-].[Cl-].[Zn+2]` [Zinc Chloride, Zinc chloride], which Ki ([1]; bacterially expressed TIR domain (300 nM) lysate) is on record?
**A.** 3.3 ± 0.1 µM

**Q.** What about the “Inhibition Mechanism” value [1] of the same compound?
**A.** Noncompetitive

**Q.** And the IC50 [2]?
**A.** 10 ± 1 µM

**Q.** What about the Inhibition Mechanism [3] of the same compound?
**A.** noncompetitive

**Q.** And the Ki [3]?
**A.** 3.3 ± 0.1 µM

**Q.** Which “Inhibition Mechanism” value [1] does the source give for `C[C@H]1c2cccc(O)c2C(=O)C2=C(O)[C@]3(O)C(=O)C(C(N)=O)=C(O)[C@@H](N(C)C)[C@@H]3[C@@H](O)[C@@H]21.Cl` [Doxycycline Hydrochloride, Doxycycline hydrochloride] here?
**A.** Noncompetitive

Source: publication PMC7443514 (Bioorganic & medicinal chemistry, 2020)
